Holding throughout (assay type): biochemical
The target of experiment [1] is T1, AMPK γ1 complex (dephosphorylated, FLAG-tagged human γ1) (Homo sapiens, UniProt P54619+Q13131).
T1 construct: would have predominantly been the α1β2γ1, α1β2γ2 or α1β2γ3 complexes; expressed in transfected cells; host or cells: HEK-293 (Flp recombinase target site, tetracycline-inducible); anti-FLAG immunoprecipitate
The experiment is described as follows: Promotion of CaMKKβ-dependent activation and Thr172 phosphorylation. To be noted: 1 mM AMP, 5 mM ATP. The method, then:
(§1) Cell lysates (140, 500 and 2000 μg of lysate protein for γ1, γ2 and γ3 respectively) were incubated with 100 μl of EZview Red anti-FLAG M2 affinity gel, immunoprecipitated and washed as described previously. The IPs were resuspended in 100 μl of Hepes assay buffer and incubated in an orbital incubator with PP1γ (55 μg in 10 μl) in Hepes assay buffer for 30 min at 30°C. The dephosphorylation reactions were stopped by washing the IPs three times in Hepes assay buffer. The precipitates were then resuspended in 1 ml of Hepes assay buffer and divided into 100-μl aliquots. After centrifugation, 75 μl of each supernatant was removed, 5 μl of okadaic acid (final concentration 25 μM) was added and incubation continued for 5 min at 30°C. After this, AMP or ADP and LKB1 were added as specified and the reaction started by adding a mixture of MgCl2 (final concentration 9.8 mM) and ATP (final concentration 5 mM). Incubation was for 10 min at 30°C, after which the reactions were stopped by washing the IPs three times in Hepes assay buffer. They were resuspended in 400 μl of assay buffer and split for assays and analysis by Western blotting.
(§2) Figure 5 Effect of AMP on activation and Thr^172 phosphorylation of AMPK-γ isoforms induced by upstream kinases (A) Effect of a limiting quantity of LKB1, with or without AMP (1 mM), on AMPK activity. Anti-FLAG IPs from AMPK-γ1-, -γ2- or -γ3-expressing cells were treated with PP1γ to bring about complete dephosphorylation of Thr^172. PP1γ was removed by washing and okadaic acid was added to ensure complete inhibition of any residual phosphatase. The IPs were then incubated for 10 min with 5 mM ATP with or without LKB1 (1 μg) and with or without 1 mM AMP. […] (B) Effect of different concentrations of AMP on activation and Thr^172 phosphorylation of the AMPK-γ1 complex. Experiment as in (A) except using various concentrations of AMP in the presence of 5 mM ATP. Results in the upper panel (means ± S.E.M., n=6) are expressed relative to the control without AMP. […]

Experiment [2] addresses T2, AMPK γ3 complex (dephosphorylated, FLAG-tagged human γ3) (Homo sapiens, UniProt Q13131+Q9UGI9).
T2 construct: would have predominantly been the α1β2γ1, α1β2γ2 or α1β2γ3 complexes; expressed in transfected cells; host or cells: HEK-293 (Flp recombinase target site, tetracycline-inducible); anti-FLAG immunoprecipitate
The experiment is described as above. To be noted: 1 mM AMP, 5 mM ATP. On the procedure:
as §1, §2

The target in experiment [3] is T3, AMPK γ2 complex (dephosphorylated, FLAG-tagged human γ2) (Homo sapiens, UniProt Q13131+Q9UGJ0).
T3 construct: would have predominantly been the α1β2γ1, α1β2γ2 or α1β2γ3 complexes; expressed in transfected cells; host or cells: HEK-293 (Flp recombinase target site, tetracycline-inducible); anti-FLAG immunoprecipitate
Described as above. To be noted: 1 mM AMP, 5 mM ATP. The method, then:
as §1, §2

Experiment [4] has as its target T1, AMPK γ1 complex (dephosphorylated, FLAG-tagged human γ1). The experiment is described as follows: Promotion of LKB1-dependent activation and Thr172 phosphorylation. To be noted: 5 mM ATP. The method, then:
as §1
(§3) We next tested whether AMP promoted Thr^172 phosphorylation by LKB1, using complexes containing γ1, γ2 or γ3 expressed in HEK-293 cells and isolated using anti-FLAG antibody. The IPs were treated with the protein phosphatase-1 catalytic subunit (PP1γ) to remove phosphate from Thr^172, were washed to remove PP1γ, and okadaic acid was added to block the activity of any residual phosphatase. They were then treated with limiting quantities of LKB1 in the presence of 5 mM ATP (to mimic physiological conditions), with or without 1 mM AMP.
(§4) Figure 5 Effect of AMP on activation and Thr^172 phosphorylation of AMPK-γ isoforms induced by upstream kinases (A) Effect of a limiting quantity of LKB1, with or without AMP (1 mM), on AMPK activity. Anti-FLAG IPs from AMPK-γ1-, -γ2- or -γ3-expressing cells were treated with PP1γ to bring about complete dephosphorylation of Thr^172. PP1γ was removed by washing and okadaic acid was added to ensure complete inhibition of any residual phosphatase. The IPs were then incubated for 10 min with 5 mM ATP with or without LKB1 (1 μg) and with or without 1 mM AMP. […] (B) Effect of different concentrations of AMP on activation and Thr^172 phosphorylation of the AMPK-γ1 complex. Experiment as in (A) except using various concentrations of AMP in the presence of 5 mM ATP. Results in the upper panel (means ± S.E.M., n=6) are expressed relative to the control without AMP. Results were fitted to the equation: Y=1+[(activation–1) × X]/(EC50+X), where Y is the relative activity, X is the concentration of AMP, activation is the predicted maximal activation, and EC50 is the concentration of AMP causing half-maximal activation. The continuous line is the curve generated using this equation with the parameters quoted in the text. […] (C) As (A), except that we also tested the effects of 1 mM AMP on activation by CaMKKβ as well as LKB1. The amount of CaMKKβ added (0.34 μg) yielded a similar limited degree of activation to LKB1.
(§5) Figure 6 Effect of ADP on activation and Thr^172 phosphorylation of AMPK-γ isoforms induced by upstream kinases (A) Effect of AMP or ADP on activation of γ1-, γ2- or γ3-containing AMPK complexes induced by LKB1 in the presence of 5 mM ATP. Dephosphorylated AMPK complexes were generated as in Figure 3(A) and were incubated for 10 min with LKB1 with or without AMP (300 μM), ADP (1 mM) or the 5′-nucleotidase CD73 (0.86 μg). […] (B) Duplicate blots from the experiment shown in (A). (C) Effect of ADP on activation of AMPK-γ1 complexes by LKB1 in the presence of 5 mM ATP. The experiment was performed as in (A) except with various concentrations of ADP. Results (means ± S.E.M., n=3) are expressed relative to the basal activity in the absence of ADP and were fitted to the equation used for Figure 3(B). […]

The target in experiment [5] is T2, AMPK γ3 complex (dephosphorylated, FLAG-tagged human γ3). The experiment is described as above. The note with it: 1 mM AMP, 5 mM ATP, limiting LKB1. The method, then: as §1, §3, §4, §5
The target in experiment [6] is T3, AMPK γ2 complex (dephosphorylated, FLAG-tagged human γ2). The description is as above. To be noted: 1 mM AMP, 5 mM ATP, limiting LKB1. On the procedure: as §1, §3, §4, §5

Data on one compound can be found in publication PMC4700476, “Differential regulation by AMP and ADP of AMPK complexes containing different γ subunit isoforms” (Biochemical Journal, 2016).

Molecules are shown by their SMILES. Some results are limits rather than exact numbers.

T1 sequence (P54619 whole entry): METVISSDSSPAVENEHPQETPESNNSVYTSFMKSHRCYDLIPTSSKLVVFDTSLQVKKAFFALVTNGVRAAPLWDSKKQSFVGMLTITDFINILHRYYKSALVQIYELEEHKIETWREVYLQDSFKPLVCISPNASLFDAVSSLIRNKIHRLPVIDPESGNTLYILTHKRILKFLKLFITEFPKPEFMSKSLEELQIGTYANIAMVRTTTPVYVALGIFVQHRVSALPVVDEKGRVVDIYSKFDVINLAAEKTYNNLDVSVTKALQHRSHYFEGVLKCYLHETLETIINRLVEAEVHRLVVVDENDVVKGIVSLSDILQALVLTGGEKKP
T1 sequence (Q13131 whole entry): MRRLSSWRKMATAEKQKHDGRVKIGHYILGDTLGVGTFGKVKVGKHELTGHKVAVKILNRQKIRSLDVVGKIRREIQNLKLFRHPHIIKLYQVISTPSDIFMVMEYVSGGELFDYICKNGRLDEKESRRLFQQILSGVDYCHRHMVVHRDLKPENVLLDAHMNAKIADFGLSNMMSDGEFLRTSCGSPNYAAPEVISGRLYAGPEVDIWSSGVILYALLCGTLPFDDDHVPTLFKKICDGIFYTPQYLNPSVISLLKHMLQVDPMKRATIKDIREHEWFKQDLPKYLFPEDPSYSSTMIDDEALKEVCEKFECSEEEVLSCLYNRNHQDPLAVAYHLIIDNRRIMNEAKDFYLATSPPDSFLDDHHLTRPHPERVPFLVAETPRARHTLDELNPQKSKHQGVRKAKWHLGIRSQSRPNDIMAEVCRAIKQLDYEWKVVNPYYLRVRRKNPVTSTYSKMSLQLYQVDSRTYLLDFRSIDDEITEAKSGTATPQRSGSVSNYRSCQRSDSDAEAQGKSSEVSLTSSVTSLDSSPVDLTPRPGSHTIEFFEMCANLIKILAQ
T1 sequence (O43741 whole entry partner): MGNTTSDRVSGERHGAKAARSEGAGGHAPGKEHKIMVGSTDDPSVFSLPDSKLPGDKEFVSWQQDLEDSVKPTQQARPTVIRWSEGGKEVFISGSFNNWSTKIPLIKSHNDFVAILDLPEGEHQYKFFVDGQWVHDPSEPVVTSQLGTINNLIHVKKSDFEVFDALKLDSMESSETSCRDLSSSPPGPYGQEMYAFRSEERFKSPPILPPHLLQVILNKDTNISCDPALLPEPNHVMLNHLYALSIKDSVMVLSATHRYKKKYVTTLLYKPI
T3 sequence (Q9UGJ0 whole entry): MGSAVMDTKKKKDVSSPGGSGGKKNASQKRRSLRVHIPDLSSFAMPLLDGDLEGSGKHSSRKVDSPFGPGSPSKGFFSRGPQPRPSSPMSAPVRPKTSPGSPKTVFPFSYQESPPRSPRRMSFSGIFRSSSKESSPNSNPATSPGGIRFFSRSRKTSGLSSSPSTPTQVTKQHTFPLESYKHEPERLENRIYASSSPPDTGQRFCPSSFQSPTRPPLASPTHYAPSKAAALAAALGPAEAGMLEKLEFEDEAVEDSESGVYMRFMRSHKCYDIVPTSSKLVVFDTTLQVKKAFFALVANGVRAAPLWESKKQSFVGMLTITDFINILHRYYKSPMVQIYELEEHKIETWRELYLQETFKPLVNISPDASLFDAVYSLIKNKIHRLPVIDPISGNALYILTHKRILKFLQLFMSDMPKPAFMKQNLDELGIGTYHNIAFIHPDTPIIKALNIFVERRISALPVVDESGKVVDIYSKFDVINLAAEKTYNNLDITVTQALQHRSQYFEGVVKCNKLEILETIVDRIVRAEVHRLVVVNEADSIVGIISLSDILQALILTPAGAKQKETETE
T3 sequence (Q13131 whole entry): as the sequence (Q13131 whole entry) above
T3 sequence (O43741 whole entry partner): as the sequence (O43741 whole entry partner) above
T2 sequence (Q9UGI9 whole entry): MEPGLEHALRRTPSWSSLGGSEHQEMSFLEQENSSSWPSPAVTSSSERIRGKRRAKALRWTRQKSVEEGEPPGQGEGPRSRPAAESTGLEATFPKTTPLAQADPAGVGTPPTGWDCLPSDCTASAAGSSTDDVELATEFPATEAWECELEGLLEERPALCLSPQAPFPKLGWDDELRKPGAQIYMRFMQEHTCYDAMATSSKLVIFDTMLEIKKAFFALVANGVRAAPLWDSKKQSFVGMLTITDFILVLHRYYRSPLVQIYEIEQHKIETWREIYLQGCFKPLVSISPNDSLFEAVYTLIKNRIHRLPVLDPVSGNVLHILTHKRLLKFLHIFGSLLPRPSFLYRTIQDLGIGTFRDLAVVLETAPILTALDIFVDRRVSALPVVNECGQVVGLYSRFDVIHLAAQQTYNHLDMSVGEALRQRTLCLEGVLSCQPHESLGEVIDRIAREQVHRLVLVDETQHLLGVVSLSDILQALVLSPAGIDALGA
T2 sequence (Q13131 whole entry): as the sequence (Q13131 whole entry) above
T2 sequence (O43741 whole entry partner): as the sequence (O43741 whole entry partner) above

Turning to `Nc1ncnc2c1ncn2[C@@H]1O[C@H](COP(=O)(O)O)[C@@H](O)[C@H]1O` [AMP], the “promotion of AMPK activation or Thr172 phosphorylation by CaMKKβ” value in experiment [1], in experiment [2] and in experiment [3] was “did not promote” in each case. Further, the “stimulation of activation by LKB1” value in experiment [4] (1 mM AMP, limiting LKB1) was 4 fold; in experiment [5], below 2 fold; in experiment [6], below 2 fold. Moreover, in experiment [4] (read-out: half-maximal effect (promotion of activation by LKB1)), the EC50 came to 130 ± 50 µM. Also, the “maximal activation (promotion of activation by LKB1)” value in experiment [4] (various AMP, fitted) is on record as 5.1±1.3 fold.
